Data as given in patent US8962603B2, “Method for post coital contraception in overweight or obese female subjects using ulipristal acetate” (Laboratoire HRA-Pharma, priority 2010, dated 2015).

Tests used:
[1] = test system: women requesting emergency contraception after unprotected intercourse; assay: Meta-analysis of Phase II and Phase III emergency contraception studies: pregnancy rate by WHO BMI class; type: in vivo; details: for Odds Ratio [95% CI]: ulipristal acetate vs levonorgestrel
Experimental: The effect of BMI in pooled phase III studies was assessed by comparing pregnancy rates among sub-groups of the study populations according to WHO weight classes. Pregnancy rates increased starting from BMI>25, and for women with a BMI>30, the 95% CI of the observed pregnancy rate overlapped with the expected pregnancy rate. […] This Phase II, prospective, multicenter, randomized, double-blind study was performed to compare the efficacy of a single 50 mg dose of ulipristal acetate (unmicronized in gelatine capsule) with two 0.75 mg doses of levonorgestrel used as an emergency postcoital contraceptive within 72 hours of unprotected intercourse. The study was carried out in seven sites in seven different states in the United States. Women (aged ≧18 years old) not using hormonal contraception and who requested emergency contraception within 72 hours (3 days) after unprotected coitus defined by lack of contraceptive use, condom breakage or other barrier contraceptive method failure were included. Subjects were required to have a history of regular menstrual cycles (mean length of 24-42 days with intra-individual variation of ±5 days). At least one normal menstrual cycle (two menses) was required after delivery, abortion, or discontinuation of hormonal contraception. Subjects were excluded from the study if they were pregnant at screening or enrollment (assessed by a high-sensitivity urine pregnancy test), pregnant or breastfeeding within the 2 months before screening, using an intra-uterine device (IUD) or female or male sterilization as a contraceptive method, uncertain about the date of the last menstrual period (±3 days), had been nauseated or vomited in the 2 weeks before screening, had used oral glucocorticoid replacement therapy in the year before the screening, or were currently enrolled in any other investigational trial. Each woman returned for a follow-up visit 5 to 7 days after the expected onset of their next menstrual period and a high-sensitivity urine pregnancy test was performed. The primary objective was to compare the efficacy, as determined by pregnancy prevention, of 50 mg ulipristal acetate and levonorgestrel used as an emergency postcoital contraceptive within 72 hours of unprotected intercourse. […] This was a prospective, single-blind (subject and sponsor blind, investigator not blind), randomized, multicenter, 2-arm parallel comparative study designed to evaluate the efficacy, safety and tolerability of a single dose of ulipristal acetate (30 mg) compared to levonorgestrel (1.5 mg) administered for EC within 120 hours after unprotected intercourse. It was performed in 10 centers in Europe and 25 centers in the US. Women (aged ≧16 years), with regular menstrual cycles (between 24 and 35 days and intra-individual variations less than or equal to 5 days), who presented for EC within 120 hours after unprotected intercourse at a participating study site and who met the inclusion/exclusion criteria were enrolled into the study after they signed informed consent form. Subjects were excluded from the study in case of ongoing pregnancy or breast-feeding or current use of hormonal contraception or IUD. The study medication (ulipristal acetate 30 mg or levonorgestrel 1.5 mg) was administered according to a random allocation procedure generated electronically. Treatment was administered orally immediately after all eligibility criteria (including negative urine pregnancy test) had been verified. […] The primary objective of the study was to provide evidence that the pregnancy rate observed after taking ulipristal acetate (30 mg) within 72 hours of unprotected intercourse is lower than the expected pregnancy rate in the absence of EC. […]

[2] = used within 72 hours of UPI; cited from earlier work
[3] = in vivo; cited from earlier work
[4] = BMI class (WHO) Normal weight (18.5 to 24.99), N=2087
[5] = BMI class (WHO) Obese grade I (30 to 34.99), N=285
[6] = BMI class (WHO) Obese grade II (35 to 39.99), N=107
[7] = BMI class (WHO) Obese grade III (≧40), N=77
[8] = BMI class (WHO) Overweight (25 to 29.99), N=744
[9] = BMI class (WHO) Underweight (<18.5), N=145
[10] = grouped BMI class Obese II and more, N=184
[11] = grouped BMI class Overweight & Obese I, N=1029
[12] = grouped BMI class Underweight & Normal, N=2232

Row | Structure (SMILES) | Pregnancy rate [1, 4] [%] | Pregnancy rate [1, 5] [%] | Pregnancy rate [1, 6] [%] | Pregnancy rate [1, 7] [%] | Pregnancy rate [1, 8] [%] | Pregnancy rate [1, 9] [%] | Pregnancy rate [1, 10] [%] | Pregnancy rate [1, 11] [%] | Pregnancy rate [1, 12] [%] | efficacy by BMI group ([1]; obese grade II (BMI 35 and above) subjects) | Odds Ratio [95% CI] ([1]; Obese II and more, CI [0.23, 4.44], NS) | Odds Ratio [95% CI] ([1]; Overweight & Obese I, CI [0.11, 0.74], p = 0.0073) | Odds Ratio [95% CI] ([1]; Underweight & Normal, CI [0.37, 1.73], NS) | efficacy by BMI group ([1]; underweight and normal (BMI below 25) and overweight and obese grade I (BMI 25-34.99) subjects) | risk of pregnancy divided by (ulipristal acetate versus levonorgestrel) ([1]; women overweight or with grade I obesity (BMI 25-34.99), p=0.0073) | efficacy versus levonorgestrel ([1]; women with a BMI>25) | efficacy for preventing pregnancy versus levonorgestrel [2] | effect on ovulation [3]
1 | C#C[C@]1(O)CC[C@H]2[C@@H]3CCC4=CC(=O)CC[C@@H]4[C@H]3CC[C@@]21CC [Levonorgestrel, levonorgestrel] | 1.33 | 6.71 | 3.85 | 4.88 | 2.45 | 1.43 | 4.30 | 3.68 | 1.34 | – | – | – | – | – | – | – | – | –
2 | CC(=O)O[C@]1(C(C)=O)CC[C@H]2[C@@H]3CCC4=CC(=O)CCC4=C3[C@@H](c3ccc(N(C)C)cc3)C[C@@]21C [Ulipristal acetate, 17α-acetoxy-11β-[4-N,N-dimethylamino-phenyl)-19-norpregna-4,9-diene-3,20-dione] | 1.16 | 1.47 | 3.64 | 5.56 | 1.06 | 0 | 4.40 | 1.17 | 1.08 | decreased | 1.02 | 0.31 | 0.81 | remained constant | 3 | significantly more effective than levonorgestrel | as efficacious as levonorgestrel | inhibits or delays ovulation in a dose-dependent fashion
